Consider 6 molecules from article PMC6364417, “Kinase inhibitor library screening identifies synergistic drug combinations effective in sensitive and resistant melanoma cells” (Journal of Experimental & Clinical Cancer Research : CR, 2019).

Common to all, as to test: Kinase inhibitor library screening, PrestoBlue cell viability, 1 or 10 μM, 72 h
Test [1] relates to IGR37-XP cells (Vemurafenib-resistant). The note with it: for viability at 1 µM / viability at 10 µM: Homo sapiens, IGR-37, 72 h; for viability at 1 µM: read-out: cell viability, IGR37 XP, 1μΜ; for viability at 10 µM: read-out: cell viability, IGR37 XP, 10μΜ.
Test [2] deals with 501Mel-XP cells (Vemurafenib-resistant). Conditions: 72 h; for viability at 1 µM / viability at 10 µM: Homo sapiens; for viability at 1 µM: read-out: cell viability, 501Mel XP, 1μΜ; for viability at 10 µM: read-out: cell viability, 501Mel XP, 10μΜ.
Test [3] deals with 501Mel-GP cells (Dabrafenib-resistant). Conditions: 72 h; for viability at 1 µM / viability at 10 µM: Homo sapiens; for viability at 1 µM: read-out: cell viability, 501Mel GP, 1μΜ; for viability at 10 µM: read-out: cell viability, 501Mel GP, 10μΜ.
For test [4], the system named is A375 cells (parental). The note with it: for viability at 1 µM / viability at 10 µM: Homo sapiens, A-375, 72 h; for viability at 1 µM: read-out: cell viability, A375 Parental, 1μΜ; for viability at 10 µM: read-out: cell viability, A375 Parental, 10μΜ.
Test [5] has as its system A375-XP cells (Vemurafenib-resistant). Conditions: for viability at 1 µM / viability at 10 µM: Homo sapiens, A-375, 72 h; for viability at 1 µM: read-out: cell viability, A375 XP, 1μΜ; for viability at 10 µM: read-out: cell viability, A375 XP, 10μΜ.
Test [6] has as its system 501Mel cells (parental). Conditions: 72 h; for viability at 1 µM / viability at 10 µM: Homo sapiens; for viability at 1 µM: read-out: cell viability, 501Mel Parental, 1μΜ; for viability at 10 µM: read-out: cell viability, 501Mel Parental, 10μΜ. The method in brief: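 Single-point screen at two doses over three days. Parental and BRAF-inhibitor-resistant sublines (XP: Vemurafenib; GP: Dabrafenib) were assessed by PrestoBlue viability, reported relative to untreated cells.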

Test [7] has as its system IGR37-GP cells (Dabrafenib-resistant). The note with it: for viability at 1 µM / viability at 10 µM: Homo sapiens, IGR-37, 72 h; for viability at 1 µM: read-out: cell viability, IGR37 GP, 1μΜ; for viability at 10 µM: read-out: cell viability, IGR37 GP, 10μΜ.
For test [8], the system named is IGR37 cells (parental). The note with it: for viability at 1 µM / viability at 10 µM: Homo sapiens, IGR-37, 72 h; for viability at 1 µM: read-out: cell viability, IGR37 Parental, 1μΜ; for viability at 10 µM: read-out: cell viability, IGR37 Parental, 10μΜ.
For test [9], the system named is A375-GP cells (Dabrafenib-resistant). The note with it: for viability at 1 µM / viability at 10 µM: Homo sapiens, A-375, 72 h; for viability at 1 µM: read-out: cell viability, A375 GP, 1μΜ; for viability at 10 µM: read-out: cell viability, A375 GP, 10μΜ.

Consider `Cc1cc(Nc2ncnc3ccc(NC4=NC(C)(C)CO4)cc23)ccc1Oc1ccn2ncnc2c1` [Arry-380], for which the viability at 1 µM in test [1] worked out at 99.7%; in [2], 117%; in [3], 101%; in test [4], 105%; in [5] it was 106%; in test [6], 103%. The viability at 1 µM in test [7] turned out to be 96.4%; in test [8], 108%; in test [9] it was 105%. Also, the viability at 10 µM in test [1] came to 24.3%; in test [2] it was 52.3%; in test [3] it was 56.8%; in test [4], 89.6%; in test [5] it was 80.2%; in test [6], 69.6%. In addition, the viability at 10 µM in test [7] came to 57.2%; in [8] it was 103%; in [9] it was 77.8%.

For `O=C(O)[C@]1(Cc2cccc(Nc3nccs3)n2)CC[C@@H](Oc2cccc(Cl)c2F)CC1` [MK-5108 (VX-689)], the “cell viability (kinase inhibitor library screening)” value in test [1] (IGR37 XP, 1μΜ, 72 h) was determined as 100.4%; in [1] (IGR37 XP, 10μΜ, 72 h) it was 80.0%; in test [2] (501Mel XP, 1μΜ) it was 72.1%; in test [2] (501Mel XP, 10μΜ) it was 52.0%; in [3] (501Mel GP, 1μΜ) it was 83.4%; in test [3] (501Mel GP, 10μΜ), 63.6%. The “cell viability (kinase inhibitor library screening)” value in [4] (A375 Parental, 10μΜ, 72 h) is on record as 56.1%; in [4] (A375 Parental, 1μΜ, 72 h), 91.4%; in test [5] (A375 XP, 1μΜ, 72 h) it was 99.5%; in test [5] (A375 XP, 10μΜ, 72 h) it was 68.2%; in test [6] (501Mel Parental, 1μΜ), 94.9%; in test [6] (501Mel Parental, 10μΜ), 74.6%. Also, the “cell viability (kinase inhibitor library screening)” value in [7] (IGR37 GP, 10μΜ, 72 h) amounted to 93.5%; in test [8] (IGR37 Parental, 1μΜ, 72 h), 98.6%; in test [8] (IGR37 Parental, 10μΜ, 72 h) it was 94.9%; in [9] (A375 GP, 1μΜ, 72 h), 92.6%; in [9] (A375 GP, 10μΜ, 72 h), 63.9%.

Regarding `C=CC(=O)Nc1cccc(Oc2nc(Nc3ccc(N4CCN(C)CC4)cc3OC)ncc2Cl)c1` [WZ4002], the viability at 1 µM in test [1] came out at 85.2%; in test [2] it was 104%; in test [3] it was 109%; in [4], 103%; in test [5], 104%; in test [6], 107%. The viability at 1 µM is 91.8% in test [7], 101% in test [8] and 96.3% in [9]. The viability at 10 µM in [1] was 1.4%; in [2], -0.3%; in [3], -0.074%; in test [4], 23.8%; in test [5], 6%; in test [6], -0.0492%. Also, the viability at 10 µM worked out at 16.7% in [7], 2% in [8] and 3.9% in [9].

Turning to `Cn1cc(C2=C(c3cn(C4CCN(Cc5ccccn5)CC4)c4ccccc34)C(=O)NC2=O)c2ccccc21` [Enzastaurin (LY317615)], the Cell viability in kinase inhibitor library screening, IGR37 XP, 10μΜ in [1] (IGR37 XP, 10μΜ, 72 h) came out at 31.7%. In addition, the “Cell viability in kinase inhibitor library screening, IGR37 XP, 1μΜ” value in test [1] (IGR37 XP, 1μΜ, 72 h, in %) came out at 98.3. Besides, the “Cell viability in kinase inhibitor library screening, 501Mel XP, 1μΜ” value in [2] (501Mel XP, 1μΜ, in %) is listed as 85.4. In addition, the “Cell viability in kinase inhibitor library screening, 501Mel XP, 10μΜ” value in [2] (501Mel XP, 10μΜ, in %) was 48.1. Besides, the “Cell viability in kinase inhibitor library screening, 501Mel GP, 1μΜ” value in [3] (501Mel GP, 1μΜ, in %) came out at 92.5. The “Cell viability in kinase inhibitor library screening, 501Mel GP, 10μΜ” value in [3] (501Mel GP, 10μΜ, in %) was 54.6. Further, in test [4] (A375 Parental, 10μΜ, 72 h), the “Cell viability in kinase inhibitor library screening, A375 Parental, 10μΜ” value worked out at 55.3. Besides, the “Cell viability in kinase inhibitor library screening, A375 Parental, 1μΜ” value in test [4] (A375 Parental, 1μΜ, 72 h) worked out at 99.1. Also, the “Cell viability in kinase inhibitor library screening, A375 XP, 1μΜ” value in [5] (A375 XP, 1μΜ, 72 h) came to 103.5. In test [5] (A375 XP, 10μΜ, 72 h), the “Cell viability in kinase inhibitor library screening, A375 XP, 10μΜ” value is on record as 66.7. Further, in test [6] (501Mel Parental, 1μΜ, in %), the “Cell viability in kinase inhibitor library screening, 501Mel Parental, 1μΜ” value was determined as 78.4. Further, in [6] (501Mel Parental, 10μΜ, in %), the “Cell viability in kinase inhibitor library screening, 501Mel Parental, 10μΜ” value was 63.8. In test [7] (IGR37 GP, 10μΜ, 72 h), the Cell viability in kinase inhibitor library screening, IGR37 GP, 10μΜ was 58.7%. Also, the “Cell viability in kinase inhibitor library screening, IGR37 GP, 1μΜ” value in test [7] (IGR37 GP, 1μΜ, 72 h, in %) is 100.0. Moreover, the “Cell viability in kinase inhibitor library screening, IGR37 Parental, 10μΜ” value in test [8] (IGR37 Parental, 10μΜ, 72 h, in %) is reported as 82.6. The “Cell viability in kinase inhibitor library screening, A375 GP, 1μΜ” value in test [9] (A375 GP, 1μΜ, 72 h) is recorded as 97.4. Moreover, the “Cell viability in kinase inhibitor library screening, A375 GP, 10μΜ” value in test [9] (A375 GP, 10μΜ, 72 h) turned out to be 58.1.

As to `CCN(CCO)CCCOc1ccc2c(Nc3cc(CC(=O)Nc4cccc(F)c4)[nH]n3)ncnc2c1` [Barasertib (AZD1152-HQPA)], the “cell viability (kinase inhibitor library screening)” value is 98.0% in test [1] (IGR37 XP, 1μΜ, 72 h); 51.5% in test [1] (IGR37 XP, 10μΜ, 72 h); 90.3% in [2] (501Mel XP, 1μΜ); 81.8% in test [2] (501Mel XP, 10μΜ); 99.2% in [3] (501Mel GP, 1μΜ); 86.2% in test [3] (501Mel GP, 10μΜ). Moreover, the “cell viability (kinase inhibitor library screening)” value in test [4] (A375 Parental, 10μΜ, 72 h) stood at 59.0%; in test [4] (A375 Parental, 1μΜ, 72 h), 59.4%; in [5] (A375 XP, 1μΜ, 72 h), 66.2%; in test [5] (A375 XP, 10μΜ, 72 h), 68.8%; in [6] (501Mel Parental, 1μΜ), 96.3%; in test [6] (501Mel Parental, 10μΜ) it was 92.5%. For the same molecule, the “cell viability (kinase inhibitor library screening)” value came out at 98.3% in test [7] (IGR37 GP, 1μΜ, 72 h); 91.0% in test [7] (IGR37 GP, 10μΜ, 72 h); 93.5% in test [8] (IGR37 Parental, 1μΜ, 72 h); 81.6% in [8] (IGR37 Parental, 10μΜ, 72 h); 57.9% in test [9] (A375 GP, 1μΜ, 72 h); 61.1% in [9] (A375 GP, 10μΜ, 72 h).

Regarding `C=CC(=O)Nc1ccc2ncnc(Nc3ccc(OCc4cccc(F)c4)c(Cl)c3)c2c1` [AST-1306], the viability at 1 µM came to 72.8% in [1]; 89.2% in test [2]; 103% in test [3]; 95% in test [4]; 90.9% in test [5]; 94.1% in test [6]. The values for the viability at 1 µM in test [7], in [8] and in test [9] were 87.4%, 99.8% and 85.4%, respectively. For the same molecule, the viability at 10 µM in test [1] is 1.1%; in test [2], -0.162%; in test [3], 2.3%; in test [4], 2.9%; in test [5], 0.8%; in test [6] it was 3%. Further, the viability at 10 µM in test [7] came out at 2.2%; in test [8], 1.8%; in test [9], 0.6%.

In general, viability refers to a read-out of living cells in per cent, often relative to untreated cells.
